# According to US20260324644A1, “HERBICIDE COMPOSITION AND A METHOD FOR BURNDOWN APPLICATION” (UPL Mauritius Limited, priority 2022, published 2026):
# Where two headings read alike, the source gives them in different places.
# Experiments:
# [1] = tested on: glutamine synthetase (GS); settings: role: inhibitor, GS of bacteria and plants, cited from earlier work
# plants = settings: background statement; cited from earlier work
# Portulaca oleracea = assay: Greenhouse trial, burndown (non-crop) weed control, Portulaca oleracea; assay type: in vivo; settings: 495 g a.i./ha
# Description: (§1) Methodology: Greenhouse trials were conducted to evaluate the efficacy of the L-glufosinate on broad spectrum weeds at non-crop stage (burndown application).
# (§2) The soil used was medium black soil. All treatments were in 3 replications per treatment with a spray volume of about 150 L/ha.
# (§3) The percentage efficacy was calculated after 10 and 15 days of application (DAA). The herbicidal composition used was L-glufosinate (SL) at 150 g a.i./L. The application rate was 495 g a.i./ha. The target weeds were Amaranthus virids, A. spinosus, C. Album, E. geniculate, P. oleracea, P. hysterophrous, Brachiaria spp., D. retroflexa, E. colonum and the concentration of the herbicide and the results are recorded in Table 2.
# (§4) The percentage efficacy was calculated after 10 and 15 days of application (DAA). The herbicidal composition used was L-glufosinate (SL) at 150 g a.i./L and 280 g a.i./L. The application rate was 495 g a.i./ha. The target weeds were Amaranthus viridis, Amaranthus spinosus, Acalypha indica, Digera arvensis, Euphorbia geniculate, Portulaca oleracea, Parthenium hysterophrous, Phyllanthus maderaspatensis and the concentration of the herbicide and the results are recorded in Table 3.
# Dinebra retroflexa = assay: Greenhouse trial, burndown (non-crop) weed control, Dinebra retroflexa; assay type: in vivo; settings: 495 g a.i./ha
# Description: as §1, §2, §3
# (§5) The percentage efficacy was calculated after 10 and 15 days of application (DAA). The herbicidal composition used was L-glufosinate (SL) at 150 g a.i./L and 280 g a.i./L. The application rate was 495 g a.i./ha. The target weeds were Brachiaria spp., Dinebra retroflexa, Echonochloa colonum and the concentration of the herbicide and the results are recorded in Table 4.
# Acalypha indica = assay: Greenhouse trial, burndown (non-crop) weed control, Acalypha indica; assay type: in vivo; settings: 495 g a.i./ha
# Description: as §1, §2, §4
# [2] = tested on: Phyllanthus maderaspatensis; assay: Greenhouse trial, burndown (non-crop) weed control, Phyllanthus maderaspatensis; assay type: in vivo; settings: 495 g a.i./ha
# Description: as §1, §2, §4
# Euphorbia geniculate = assay: Greenhouse trial, burndown (non-crop) weed control, Euphorbia geniculate; assay type: in vivo; settings: for % Control after 10 DAA: Example 1; for % Control: 495 g a.i./ha
# Description: as §1, §2
# (§6) The percentage efficacy was calculated after 10 days of application (DAA). The target weeds were Amaranthus viridis, E. geniculate, P. oleracea, Brachiaria spp. and the concentration of the herbicide and the results are recorded in Table 1.
# as §3, §4
# Amaranthus spinosus = assay: Greenhouse trial, burndown (non-crop) weed control, Amaranthus spinosus; assay type: in vivo; settings: 495 g a.i./ha
# Description: as §1, §2, §3, §4
# Parthenium hysterophrous = assay: Greenhouse trial, burndown (non-crop) weed control, Parthenium hysterophrous; assay type: in vivo; settings: 495 g a.i./ha
# Description: as §1, §2, §3, §4
# E. colonum = assay: Greenhouse trial, burndown (non-crop) weed control, E. colonum; assay type: in vivo; settings: Example 2, SL 150 g a.i./L, 495 g a.i./ha
# Description: as §1, §2, §3
# Digera arvensis = assay: Greenhouse trial, burndown (non-crop) weed control, Digera arvensis; assay type: in vivo; settings: 495 g a.i./ha
# Description: as §1, §2, §4
# Brachiaria spp. = assay: Greenhouse trial, burndown (non-crop) weed control, Brachiaria spp.; assay type: in vivo; settings: for % Control: 495 g a.i./ha
# Description: as §1, §2, §6, §3, §5
# C. Album = assay: Greenhouse trial, burndown (non-crop) weed control, C. Album; assay type: in vivo; settings: Example 2, SL 150 g a.i./L, 495 g a.i./ha
# Description: as §1, §2, §3
# Amaranthus viridis = assay: Greenhouse trial, burndown (non-crop) weed control, Amaranthus viridis; assay type: in vivo; settings: for % Control: 495 g a.i./ha
# Description: as §1, §2, §6, §3, §4
# [3] = Example 3, SL 150 g a.i./L, 10 DAA
# [4] = Example 3, SL 150 g a.i./L, 15 DAA
# [5] = Example 3, SL 280 g a.i./L, 10 DAA
# [6] = Example 3, SL 280 g a.i./L, 15 DAA
# [7] = Example 1, L-glufosinate (SL) 200 g a.i./L, rate 150 g a.i./ha, 10 DAA
# [8] = Example 1, L-glufosinate (SL) 200 g a.i./L, rate 165 g a.i./ha, 10 DAA
# [9] = Example 1, L-glufosinate (SL) 200 g a.i./L, rate 200 g a.i./ha, 10 DAA
# [10] = Example 1, L-glufosinate (SL) 200 g a.i./L, rate 220 g a.i./ha, 10 DAA
# [11] = Example 1, L-glufosinate (SL) 280 g a.i./L, rate 150 g a.i./ha, 10 DAA
# [12] = Example 1, L-glufosinate (SL) 280 g a.i./L, rate 165 g a.i./ha, 10 DAA
# [13] = Example 1, L-glufosinate (SL) 280 g a.i./L, rate 200 g a.i./ha, 10 DAA
# [14] = Example 1, L-glufosinate (SL) 280 g a.i./L, rate 220 g a.i./ha, 10 DAA
# [15] = Example 2, SL 150 g a.i./L, 10 DAA
# [16] = Example 2, SL 150 g a.i./L, 15 DAA
structure (smiles),measurement,setting,value
CP(=O)(O)CC[C@@H](N)C(=O)O [D-glufosinate],inhibition of glutamine synthetase (GS),[1],not a GS inhibitor
same,herbicidal activity,plants,not herbicidally active
"CP(=O)(O)CC[C@H](N)C(=O)O.N [L-glufosinate, (S)-2-amino-4-(hydroxy(methyl)phosphonoyl)butanoic acid]",% Control,"Portulaca oleracea; Example 2, SL 150 g a.i./L, 10 DAA, P. oleracea",88%
same,% Control,"Portulaca oleracea; Example 2, SL 150 g a.i./L, 15 DAA, P. oleracea",82%
same,% Control,"Portulaca oleracea; Example 3, SL 150 g a.i./L, 10 DAA, Portulaca oleracea",100%
same,% Control,"Portulaca oleracea; Example 3, SL 150 g a.i./L, 15 DAA, Portulaca oleracea",100%
same,% Control,"Portulaca oleracea; Example 3, SL 280 g a.i./L, 10 DAA, Portulaca oleracea",100%
same,% Control,"Portulaca oleracea; Example 3, SL 280 g a.i./L, 15 DAA, Portulaca oleracea",100%
same,% Control,"Dinebra retroflexa; Example 2, SL 150 g a.i./L, 10 DAA, D. retroflexa",100%
same,% Control,"Dinebra retroflexa; Example 2, SL 150 g a.i./L, 15 DAA, D. retroflexa",100%
same,% Control,"Dinebra retroflexa; Example 4, SL 150 g a.i./L, 10 DAA, Dinebra retroflexa",83%
same,% Control,"Dinebra retroflexa; Example 4, SL 150 g a.i./L, 15 DAA, Dinebra retroflexa",70%
same,% Control,"Dinebra retroflexa; Example 4, SL 280 g a.i./L, 10 DAA, Dinebra retroflexa",83%
same,% Control,"Dinebra retroflexa; Example 4, SL 280 g a.i./L, 15 DAA, Dinebra retroflexa",70%
same,% Control,Acalypha indica; [3],80%
same,% Control,Acalypha indica; [4],100%
same,% Control,Acalypha indica; [5],87%
same,% Control,Acalypha indica; [6],100%
same,% Control,[2]; [3],93%
same,% Control,[2]; [4],100%
same,% Control,[2]; [5],97%
same,% Control,[2]; [6],97%
same,inhibition of glutamine synthetase (GS),[1]; listed as L-isomer of glufosinate,competitive inhibitor
same,inhibition of glutamine synthetase (GS),[1]; listed as L-isomer,only the L-isomer inhibits GS
same,% Control after 10 DAA,"Euphorbia geniculate; L-glufosinate (SL) 200 g a.i./L, rate 150 g a.i./ha, 10 DAA, E. geniculate",93%
same,% Control after 10 DAA,"Euphorbia geniculate; L-glufosinate (SL) 200 g a.i./L, rate 165 g a.i./ha, 10 DAA, E. geniculate",95%
same,% Control after 10 DAA,"Euphorbia geniculate; L-glufosinate (SL) 200 g a.i./L, rate 200 g a.i./ha, 10 DAA, E. geniculate",97%
same,% Control after 10 DAA,"Euphorbia geniculate; L-glufosinate (SL) 200 g a.i./L, rate 220 g a.i./ha, 10 DAA, E. geniculate",93%
same,% Control after 10 DAA,"Euphorbia geniculate; L-glufosinate (SL) 280 g a.i./L, rate 150 g a.i./ha, 10 DAA, E. geniculate",92%
same,% Control after 10 DAA,"Euphorbia geniculate; L-glufosinate (SL) 280 g a.i./L, rate 165 g a.i./ha, 10 DAA, E. geniculate",90%
same,% Control after 10 DAA,"Euphorbia geniculate; L-glufosinate (SL) 280 g a.i./L, rate 200 g a.i./ha, 10 DAA, E. geniculate",95%
same,% Control after 10 DAA,"Euphorbia geniculate; L-glufosinate (SL) 280 g a.i./L, rate 220 g a.i./ha, 10 DAA, E. geniculate",93%
same,% Control,"Euphorbia geniculate; Example 2, SL 150 g a.i./L, 10 DAA, E. geniculate",100%
same,% Control,"Euphorbia geniculate; Example 2, SL 150 g a.i./L, 15 DAA, E. geniculate",100%
same,% Control,"Euphorbia geniculate; Example 3, SL 150 g a.i./L, 10 DAA, Euphorbia geniculate",80%
same,% Control,"Euphorbia geniculate; Example 3, SL 150 g a.i./L, 15 DAA, Euphorbia geniculate",100%
same,% Control,"Euphorbia geniculate; Example 3, SL 280 g a.i./L, 10 DAA, Euphorbia geniculate",90%
same,% Control,"Euphorbia geniculate; Example 3, SL 280 g a.i./L, 15 DAA, Euphorbia geniculate",100%
same,% Control,"Amaranthus spinosus; Example 2, SL 150 g a.i./L, 10 DAA, A. spinosus",100%
same,% Control,"Amaranthus spinosus; Example 2, SL 150 g a.i./L, 15 DAA, A. spinosus",100%
same,% Control,"Amaranthus spinosus; Example 3, SL 150 g a.i./L, 10 DAA, Amaranthus spinosus",100%
same,% Control,"Amaranthus spinosus; Example 3, SL 150 g a.i./L, 15 DAA, Amaranthus spinosus",100%
same,% Control,"Amaranthus spinosus; Example 3, SL 280 g a.i./L, 10 DAA, Amaranthus spinosus",100%
same,% Control,"Amaranthus spinosus; Example 3, SL 280 g a.i./L, 15 DAA, Amaranthus spinosus",100%
same,% Control,"Parthenium hysterophrous; Example 2, SL 150 g a.i./L, 10 DAA, P. hysterophrous",100%
same,% Control,"Parthenium hysterophrous; Example 2, SL 150 g a.i./L, 15 DAA, P. hysterophrous",100%
same,% Control,"Parthenium hysterophrous; Example 3, SL 150 g a.i./L, 10 DAA, Parthenium hysterophrous",93%
same,% Control,"Parthenium hysterophrous; Example 3, SL 150 g a.i./L, 15 DAA, Parthenium hysterophrous",93%
same,% Control,"Parthenium hysterophrous; Example 3, SL 280 g a.i./L, 10 DAA, Parthenium hysterophrous",97%
same,% Control,"Parthenium hysterophrous; Example 3, SL 280 g a.i./L, 15 DAA, Parthenium hysterophrous",97%
same,% Control,E. colonum; 10 DAA,90%
same,% Control,E. colonum; 15 DAA,90%
same,% Control,Digera arvensis; [3],100%
same,% Control,Digera arvensis; [4],100%
same,% Control,Digera arvensis; [5],100%
same,% Control,Digera arvensis; [6],100%
same,% Control after 10 DAA,Brachiaria spp.; [7],100%
same,% Control after 10 DAA,Brachiaria spp.; [8],100%
same,% Control after 10 DAA,Brachiaria spp.; [9],100%
same,% Control after 10 DAA,Brachiaria spp.; [10],100%
same,% Control after 10 DAA,Brachiaria spp.; [11],100%
same,% Control after 10 DAA,Brachiaria spp.; [12],100%
same,% Control after 10 DAA,Brachiaria spp.; [13],100%
same,% Control after 10 DAA,Brachiaria spp.; [14],100%
same,% Control,Brachiaria spp.; [15],93%
same,% Control,Brachiaria spp.; [16],100%
same,% Control,"Brachiaria spp.; Example 4, SL 150 g a.i./L, 10 DAA",100%
same,% Control,"Brachiaria spp.; Example 4, SL 150 g a.i./L, 15 DAA",100%
same,% Control,"Brachiaria spp.; Example 4, SL 280 g a.i./L, 10 DAA",100%
same,% Control,"Brachiaria spp.; Example 4, SL 280 g a.i./L, 15 DAA",100%
same,% Control,C. Album; 10 DAA,100%
same,% Control,C. Album; 15 DAA,100%
same,% Control after 10 DAA,Amaranthus viridis; [7],100%
same,% Control after 10 DAA,Amaranthus viridis; [8],100%
same,% Control after 10 DAA,Amaranthus viridis; [9],100%
same,% Control after 10 DAA,Amaranthus viridis; [10],100%
same,% Control after 10 DAA,Amaranthus viridis; [11],100%
same,% Control after 10 DAA,Amaranthus viridis; [12],100%
same,% Control after 10 DAA,Amaranthus viridis; [13],100%
same,% Control after 10 DAA,Amaranthus viridis; [14],100%
same,% Control,Amaranthus viridis; [15],100%
same,% Control,Amaranthus viridis; [16],100%
same,% Control,Amaranthus viridis; [3],100%
same,% Control,Amaranthus viridis; [4],100%
same,% Control,Amaranthus viridis; [5],100%
same,% Control,Amaranthus viridis; [6],100%
same,herbicidal activity,plants,herbicidally active
